Data published in patent US20230057568A1, “COMPOUNDS FOR TREATING FAMILIAL DYSAUTONOMIA” (PTC THERAPEUTICS, INC., priority 2019, published 2023).

System: Elongator complex protein 1 (ELP1, also referred to as IKBKAP)
Assay: IKBKAP-HTRF Assay
Assay type: cell-based, human
Conditions: FD patient-derived fibroblasts GM04589, 48 hours incubation; for EC2x for IKBKAP protein expression (concentration producing two times the amount of IKBKAP protein vs DMSO vehicle control): 7-point concentration curve; for MFI (maximum fold increase in IKBKAP protein abundance relative to the vehicle control): HTRF
Protocol: The assay is used for the quantitative determination of Elongator complex protein 1 (ELP1, also referred to as IKBKAP) concentration in cell lysates using the HTRF® (Homogeneous Time-Resolved Fluorescence) technology. IKBKAP is detected in a sandwich HTRF assay by use of an anti-IKAP antibody labeled with a donor and an anti-IKAP antibody labeled with an acceptor.
Cells were thawed and incubated in DMEM-10% FBS for 72 hours. Cells were trypsinized, counted, and re-suspended to a concentration of 50,000 cells/mL in DMEM-10% FBS. A 199 μL, aliquot of the cell suspensions were plated at 10,000 cells per well in a 96 well microtiter plate and incubated for 3 to 5 hours. […] Test compounds were serially diluted 3.16-fold in 100% DMSO to generate a 7-point concentration curve. A 1 μL aliquot of 200× compound solution was transferred to cell-containing wells, and cells were incubated for 48 hours in a cell culture incubator (37° C., 5% CO2, 100% relative humidity). Triplicate samples were set up for each compound concentration. After 48 hours, the supernatant was removed from the cells and 50 μL of the 1× LB4 lysis buffer, containing protease inhibitors, was added to the cells and incubated with shaking at room temperature for 1 hour. A 36 μL aliquot of this lysate was subsequently transferred to the 384-well plate containing 4 μL of the antibody solution (1:50 dilution of anti IKAP d2 and anti-IKAP K(9+8) in detection buffer). The 384-well plate was then centrifuged for 1 minute to bring the solutions to the bottom of the plate and incubated overnight at 4° C. Fluorescence for each well of the plate at 665 nm and 620 nm was measured was on the EnVision plate reader (Perkin Elmer). The AF for each sample is calculated by: […]
wherein Signal is the normalized fluorescence for each sample well and Blank is the average normalized average fluorescence for the Blank control wells.
The maximum fold increase (MFI) in IKBKAP protein abundance for compounds of Formula (I) or a form thereof relative to the vehicle control are provided in Table 1. MFI was calculated by dividing the AF value for each sample well by the sample AF for the vehicle control wells.
The EC2× for IKBKAP protein expression obtained from the 7-point concentration curve generated for each test compound according to the protocol in Biological Example 1 are also provided in Table 1. The term “EC2× for IKBKAP protein expression” is defined as the concentration of test compound that is effective in producing two times the amount of IKBKAP protein in a FD patient cell compared to the amount produced from the DMSO vehicle control.

| SMILES | EC2x for IKBKAP protein expression (concentration producing two times the amount of IKBKAP protein vs DMSO vehicle control) | MFI (maximum fold increase in IKBKAP protein abundance relative to the vehicle control) |
| --- | --- | --- |
| Cc1c(C[C@H](C)N)sc2c(NCc3ccno3)nc(Cl)nc12 [Cpd 39, 6-[(2S)-2-aminopropyl]-2-chloro-7-methyl-N-[(1,2-oxazol-5-yl)methyl]thieno[3,2-d]pyrimidin-4-amine] | *** (between >0.02 μM and ≤0.5 μM) | ***** (>4.9) |
| C[C@H](N)Cc1sc2c(NCc3ccco3)nc(Cl)nc2c1Br [Cpd 40, 6-[(2S)-2-aminopropyl]-7-bromo-2-chloro-N-[(furan-2-yl)methyl]thieno[3,2-d]pyrimidin-4-amine] | ***** (<0.005 μM) | ***** (>4.9) |
| Cc1c(C2CNC2)sc2c(NCc3ccco3)nc(Cl)nc12 [Cpd 41, 6-(azetidin-3-yl)-2-chloro-N-[(furan-2-yl)methyl]-7-methylthieno[3,2-d]pyrimidin-4-amine] | *** (between >0.02 μM and ≤0.5 μM) | ** (between >1.9 and <2.9) |
| Clc1nc(NCc2ccco2)c2scc(Br)c2n1 [Cpd 42, 7-bromo-2-chloro-N-[(furan-2-yl)methyl]thieno[3,2-d]pyrimidin-4-amine] | *** (between >0.02 μM and ≤0.5 μM) | ***** (>4.9) |
| Clc1nc(NCc2ccncc2)c2scc(Br)c2n1 [Cpd 43, 7-bromo-2-chloro-N-[(pyridin-4-yl)methyl]thieno[3,2-d]pyrimidin-4-amine] | *** (between >0.02 μM and ≤0.5 μM) | **** (between >3.9 and <4.9) |
| Cc1c(C[C@H](C)N)sc2c(NCc3ccccc3F)nc(Cl)nc12 [Cpd 44, 6-[(2S)-2-aminopropyl]-2-chloro-N-[(2-fluorophenyl)methyl]-7-methylthieno[3,2-d]pyrimidin-4-amine] | ***** (<0.005 μM) | ***** (>4.9) |
| Cc1c(C[C@H](C)N)sc2c(NCc3ccncc3)nc(Cl)nc12 [Cpd 45, 6-[(2S)-2-aminopropyl]-2-chloro-7-methyl-N-[(pyridin-4-yl)methyl]thieno[3,2-d]pyrimidin-4-amine] | ***** (<0.005 μM) | ***** (>4.9) |
| C[C@H](N)c1sc2c(NCc3ccco3)nc(Cl)nc2c1Br [Cpd 46, 6-[(1S)-1-aminoethyl]-7-bromo-2-chloro-N-[(furan-2-yl)methyl]thieno[3,2-d]pyrimidin-4-amine] | * (EC2×>1 μM) | * (MFI<1.9) |
| Cc1c([C@H](C)N)sc2c(NCc3ccco3)nc(Cl)nc12 [Cpd 47, 6-[(1S)-1-aminoethyl]-2-chloro-N-[(furan-2-yl)methyl]-7-methylthieno[3,2-d]pyrimidin-4-amine] | *** (between >0.02 μM and ≤0.5 μM) | *** (between >2.9 and <3.9) |
| CC[C@H](N)c1sc2c(NCc3ccco3)nc(Cl)nc2c1C [Cpd 48, 6-[(1S)-1-aminopropyl]-2-chloro-N-[(furan-2-yl)methyl]-7-methylthieno[3,2-d]pyrimidin-4-amine] | *** (between >0.02 μM and ≤0.5 μM) | ** (between >1.9 and <2.9) |
| CC[C@@H](N)c1sc2c(NCc3ccco3)nc(Cl)nc2c1C [Cpd 49, 6-[(1R)-1-aminopropyl]-2-chloro-N-[(furan-2-yl)methyl]-7-methylthieno[3,2-d]pyrimidin-4-amine] | * (EC2×>1 μM) | * (MFI<1.9) |
| Cc1c(C[C@@H](N)CCF)sc2c(NCc3ccco3)nc(Cl)nc12 [Cpd 51, 6-[(2S)-2-amino-4-fluorobutyl]-2-chloro-N-[(furan-2-yl)methyl]-7-methylthieno[3,2-d]pyrimidin-4-amine] | ***** (<0.005 μM) | ***** (>4.9) |
| Cc1c(C[C@@H]2CCOC(=O)N2)sc2c(NCc3ccco3)nc(Cl)nc12 [Cpd 52, (4S)-4-[(2-chloro-4-{[(furan-2-yl)methyl]amino}-7-methylthieno[3,2-d]pyrimidin-6-yl)methyl]-1,3-oxazinan-2-one] | * (EC2×>1 μM) | ** (between >1.9 and <2.9) |
| CC[C@H](N)Cc1sc2c(NCc3ccncc3F)nc(Cl)nc2c1C [Cpd 53, 6-[(2S)-2-aminobutyl]-2-chloro-N-[(3-fluoropyridin-4-yl)methyl]-7-methylthieno[3,2-d]pyrimidin-4-amine] | ***** (<0.005 μM) | ***** (>4.9) |
| CC[C@H](N)Cc1sc2c(NCc3nccs3)nc(Cl)nc2c1C [Cpd 54, 6-[(2S)-2-aminobutyl]-2-chloro-7-methyl-N-[(1,3-thiazol-2-yl)methyl]thieno[3,2-d]pyrimidin-4-amine] | ***** (<0.005 μM) | ***** (>4.9) |
| Cc1c(C[C@H](C)N)sc2c(NCc3ncccn3)nc(Cl)nc12 [Cpd 55, 6-[(2S)-2-aminopropyl]-2-chloro-7-methyl-N-[(pyrimidin-2-yl)methyl]thieno[3,2-d]pyrimidin-4-amine] | *** (between >0.02 μM and ≤0.5 μM) | *** (between >2.9 and <3.9) |
| Cc1c(C[C@@H](N)CO)sc2c(NCc3cccs3)nc(Cl)nc12 [Cpd 56, (2R)-2-amino-3-(2-chloro-7-methyl-4-{[(thiophen-2-yl)methyl]amino}thieno[3,2-d]pyrimidin-6-yl)propan-l-ol] | ***** (<0.005 μM) | ***** (>4.9) |
| Cc1c(C2CCNC2)sc2c(NCc3ccco3)nc(Cl)nc12 (stereo not shown) [Cpd 57, 2-chloro-N-[(furan-2-yl)methyl]-7-methyl-6-(pyrrolidin-3-yl)thieno[3,2-d]pyrimidin-4-amine] | *** (between >0.02 μM and ≤0.5 μM) | *** (between >2.9 and <3.9) |
| C[C@H](N)c1sc2c(NCc3ccco3)nc(Cl)nc2c1-c1ccccc1 [Cpd 58, 6-[(1S)-1-aminoethyl]-2-chloro-N-[(furan-2-yl)methyl]-7-phenylthieno[3,2-d]pyrimidin-4-amine] | * (EC2×>1 μM) | * (MFI<1.9) |
| Cc1c(C[C@H](C)N)sc2c(NCc3ncccc3F)nc(Cl)nc12 [Cpd 59, 6-[(2S)-2-aminopropyl]-2-chloro-N-[(3-fluoropyridin-2-yl)methyl]-7-methylthieno[3,2-d]pyrimidin-4-amine] | *** (between >0.02 μM and ≤0.5 μM) | **** (between >3.9 and <4.9) |
